Test results reported in US4459302A, “Acyl-1H-1,2,4-triazole derivatives” (Gruppo Lepetit, S.p.A., priority 1978, dated 1984).

System: female Syrian golden hamsters
Experiment: antifertility (post-coital post-implantation) activity, subcutaneous, hamsters
Type: in vivo, Syrian golden hamster
Conditions: for ED50: Mesocricetus auratus, sc, 336 h, s.c. hamster, dosed days 4-8 of pregnancy, autopsy day 14, read-out: ED50 (100% activity, absence of live fetuses, in 50% of the animals)
Excerpt: Fertility regulation can usually be achieved in a number of ways through the administration of hormonal substances. These can involve ovulation inhibition, ova transport, fertilization, implantation of the zygote, resorption of the fetus or abortion. Only with ovulation inhibition has there developed a successful method that is clinically useful. The compounds of this invention allow an entirely new approach to this problem in which a non-hormonal compound can be administered parenterally, orally or by intravaginal route once or more times as needed after a "missed period" or to induce termination of a more advanced pregnancy. Representative experiments for assessing antifertility activity were carried out with female Syrian golden hamsters weighing 100 to 130 g. The animals were mated and the presence of sperm in the vagina was taken as evidence of mating. The day sperm was detected and considered day one of pregnancy, since in our laboratories and those of other investigators 90 to 100% of animals that mate as evidenced by vaginal sperm are pregnant.
Pregnancy was later confirmed at the time of autopsy by presence of fetuses or implantation sites in the uterus. Even if an animal aborts the fetus, implantation scars still remain as evidence that the animal has been pregnant. […] The animals were autopsied on day 14 of pregnancy and the uteri were examined for evidence of pregnancy (implantation sites, fetalresorption or live fetuses), hemorrhage, and evidence of abnormalities of the uterus, placenta or fetuses. A compound was considered to be active if there was a reduction of live fetuses in at least 60% of the treated animals and the presence of implantation sites proves the animal to have been pregnant.
The compounds were then studied for dose-activity relationship and the corresponding ED50 values, i.e. 100% activity (absence of live fetuses) in 50% of the animals, were also detrmined. The following Table reports the ED50 values of some representative compounds of the invention as well as that of the above mentioned known substance: […]

Compound	ED50	activity by the criterion: reduction of live fetuses in at least 60% of the treated animals (hamster, 10 mg/kg s.c. daily for 5 days, days 4-8 of pregnancy)
COc1cccc(-c2nc(-c3ccccc3C)n(C)n2)c1 [1-Methyl-3-(3-methoxyphenyl)-5-(2-methylphenyl)-1H-1,2,4,-triazole, reference compound]	> 10 mg/kg	much less active
COc1cccc(-c2nc(-c3ccccc3C)n(C(C)=O)n2)c1 [Example 1, 1-Acetyl-3-(3-methoxyphenyl)-5-(2-methylphenyl)-1H-1,2,4-triazole]	0.05 mg/kg	–
CCC(=O)n1nc(-c2cccc(OC)c2)nc1-c1ccccc1C [Example 2, 1-Propionyl-3-(3-methoxyphenyl)-5-(2-methylphenyl)-1H-1,2,4-triazole]	0.07 mg/kg	–
COc1cccc(-c2nc(-c3ccccc3C)n(C(=O)C(C)(C)C)n2)c1 [Example 3, 1-(2,2-Dimethylpropionyl)-3-(3-methoxyphenyl)-5-(2-methylphenyl)-1H-1,2,4-triazole]	0.15 mg/kg	–
COc1cccc(-c2nc(-c3ccc(Cl)cc3C)n(C(C)=O)n2)c1 [Example 5, 1-Acetyl-5-(4-chloro-2-methylphenyl)-3-(3-methoxyphenyl)-1H-1,2,4-triazole]	0.06 mg/kg	–
CCc1ccccc1-c1nc(-c2cccc(OC)c2)nn1C(C)=O [Example 6, 1-Acetyl-5-(2-ethylphenyl)-3-(3-methoxyphenyl)-1H-1,2,4-triazole]	0.04 mg/kg	–
COc1cccc(-c2nc(-c3ccccc3COC(C)=O)n(C(C)=O)n2)c1 [Example 7, 1-Acetyl-5-(2-acetoxymethylphenyl)-3-(3-methoxyphenyl)-1H-1,2,4-triazole]	0.04 mg/kg	–
CCOC(=O)n1nc(-c2cccc(OC)c2)nc1-c1ccccc1CC [Example 8, 1-Carbethoxy-5-(2-ethylphenyl)-3-(3-methoxyphenyl)-1H-1,2,4-triazole]	0.05 mg/kg	–
CCc1ccccc1-c1nc(-c2cccc(OC)c2)nn1C(=O)OC [Example 9, 1-Carbomethoxy-5-(2-ethylphenyl)-3-(3-methoxyphenyl)-1H-1,2,4-triazole]	0.05 mg/kg	–
CCOC(=O)n1nc(-c2cccc(OC)c2)nc1-c1ccccc1C [Example 10, 1-Carbethoxy-3-(3-methoxyphenyl)-5-(2-methylphenyl)-b 1H-1,2,4-triazole]	0.06 mg/kg	–
COc1cccc(-c2nc(-c3ccccc3C)n(C(=O)c3ccccc3)n2)c1 [Example 11, 1-Benzoyl-3-(3-methoxyphenyl)-5-(2-methylphenyl)-1H-1,2,4-triazole]	0.1 mg/kg	–
COc1cccc(-c2nc(-c3ccccc3C)n(C(=O)Nc3ccccc3)n2)c1 [Example 13, 3-(3-Methoxyphenyl)-5-(2-methylphenyl)-1-phenylcarbamoyl-1H-1,2,4-triazole]	0.05 mg/kg	–
CCNC(=O)n1nc(-c2cccc(OC)c2)nc1-c1ccccc1C [Example 14]	0.15 mg/kg	–
CCc1ccccc1-c1nc(-c2cccc(OC)c2)nn1C(=O)NC [Example 15, 5-(2-Ethylphenyl)-3-(3-methoxyphenyl)-1-methylcarbamoyl-1H-1,2,4-triazole]	0.05 mg/kg	–
CCc1ccccc1-c1nc(-c2cccc(OC)c2)nn1C(=O)Nc1ccccc1 [Example 16]	0.05 mg/kg	–
CCc1ccccc1-c1nc(-c2cccc(OC)c2)nn1C(=O)Nc1ccc(OC)cc1 [Example 17, 5-(2-Ethylphenyl)-3-(3-methoxyphenyl)-1-(4-methoxyphenylcarbamoyl)-1H-1,2,4-triazole]	0.07 mg/kg	–
CCc1ccccc1-c1nc(-c2cccc(OC)c2)nn1C(=O)Nc1ccccc1Cl [Example 18]	0.05 mg/kg	–
CCc1ccccc1-c1nc(-c2cccc(OC)c2)nn1C(=O)Nc1ccc(Cl)cc1 [Example 19, 1-(4-Chlorophenylcarbamoyl)-5-(2-ethylphenyl)-3-(3-methoxyphenyl)-1H-1,2,4-triazole]	0.05 mg/kg	–
CCc1ccccc1-c1nc(-c2cccc(OC)c2)nn1C(=O)Nc1ccc([N+](=O)[O-])cc1 [Example 20, 5-(2-Ethylphenyl)-3-(3-methoxyphenyl)-1-(4-nitrophenyl)carbamoyl-1H-1,2,4-triazole]	0.05 mg/kg	–
CCc1ccccc1-c1nc(-c2cccc(OC)c2)nn1C(=O)Nc1ccc(C)cc1 [Example 21a, 5-(2-Ethylphenyl)-3-(3-methoxyphenyl)-1-(4-methylphenylcarbamoyl)-1H-1,2,4-triazole]	0.05 mg/kg	–
CCc1ccccc1-c1nc(-c2cccc(OC)c2)n(C(=O)Nc2ccc(C)cc2)n1 [Example 21b, 3-(2-ethylphenyl)-5-(3-methoxyphenyl)-1-(4-methylphenylcarbamoyl)-1H-1,2,4-triazole]	0.04 mg/kg	–
COc1cccc(-c2nc(-c3ccccc3C)n(C(=O)Nc3ccc(C)cc3)n2)c1 [Example 22a, 3-(3-methoxyphenyl)-5-(2-methylphenyl)-1-(4-methylphenylcarbamoyl)-1H-1,2,4-triazole]	0.08 mg/kg	–
COc1cccc(-c2nc(-c3ccccc3C)nn2C(=O)Nc2ccc(C)cc2)c1 [Example 22b, 5-(3-methoxyphenyl)-3-(2-methylphenyl)-1-(4-methylphenylcarbamoyl)-1H-1,2,4-triazole]	0.08 mg/kg	–
COc1cccc(-c2n[nH]c(-c3ccccc3COC(C)=O)n2)c1 [Example 24, 5-(2-Acetoxymethylphenyl)-3-(3-methoxyphenyl)-1H-1,2,4-triazole]	0.04 mg/kg	–
